Results taken from PubChem BioAssay (NCI).
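Following 48 hours of exposure in 96-well plates, responses at five concentrations were used to interpolate endpoints linearly. GI50 marks 50% less growth. TGI: total growth inhibition.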

How the values were obtained:
Assay in all cases: growth of human tumour cells (NCI), 48 h
[1] = test system: SN12C renal
[2] = test system: COLO 205 colon
[3] = test system: HCC-2998 colon
[4] = test system: 786-0 renal
[5] = test system: OVCAR-4 ovarian
[6] = test system: SK-MEL-2 melanoma
[7] = test system: MCF7 breast
[8] = test system: HCT-116 colon

Structure (SMILES) | GI50 [1] [µM] | TGI [1] [µM] | GI50 [2] [µM] | TGI [2] [µM] | GI50 [3] [µM] | TGI [3] [µM] | GI50 [4] [µM] | TGI [4] [µM] | GI50 [5] [µM] | TGI [5] [µM] | GI50 [6] [µM] | TGI [6] [µM] | GI50 [7] [µM] | TGI [7] [µM] | GI50 [8] [µM] | TGI [8] [µM]
C=C1C(=O)O[C@H]2[C@H]1CC/C(COC(=O)CCCCC(=O)OC/C1=C/CC[C@@]3(C)O[C@H]3[C@H]3OC(=O)C(=C)[C@@H]3CC1)=C\CC[C@@]1(C)O[C@@H]21 | 2.62 | > 100 | 1.29 | 3.31 | 2.09 | 3.94 | 1.69 | 3.86 | 3.01 | > 100 | 3.39 | 75.6 | – | – | – | –
CCOc1c(Br)cc(C2C(C(=O)OC)=CN(C)C=C2C(=O)OC)cc1OC | 78.6 | > 100 | 99.2 | > 100 | > 100 | > 100 | > 100 | > 100 | 54.1 | > 100 | – | – | 40.6 | > 100 | 48.3 | > 100
N#C/C(=C\c1ccc(-c2ccc(Cl)cc2)o1)C(=O)Nc1ncc(Cc2ccc(Cl)cc2)s1 | 1.28 | 3.32 | 2.45 | 7.39 | 3.63 | > 100 | 1.77 | 3.47 | 0.422 | 2.01 | 3.26 | 12.9 | 2.51 | > 100 | 1.41 | 3.51
Oc1ccc2cc(Br)ccc2c1-c1c(O)ccc2cc(Br)ccc12 | 2.04 | 4.81 | 1.77 | 3.38 | 2.22 | 4.8 | 2.38 | 4.64 | 4.89 | 14.6 | 3.82 | 13.5 | 2.49 | 6.76 | 1.95 | 4.01
Cc1cc(N2CCCCC2)nc(N(CCCNc2ccnc3cc(Cl)ccc23)Cc2ccco2)n1 | 2.14 | 7.15 | 1.67 | 3.53 | 1.97 | 4.39 | 1.61 | 3.27 | 2.69 | 14.3 | 2.4 | 6.25 | 1.81 | 5.13 | 1.15 | 3.28
CC1=NN(c2ccccc2)C(=O)C1N=Nc1ccc([As](=O)(O)O)c(O)c1 (stereo unspecified) | – | > 100 | – | > 100 | – | – | – | > 100 | – | > 100 | – | > 100 | – | > 100 | – | > 100
C[n+]1c(/C=C\c2ccc(Cl)cc2)ccc2ccccc21 | 4.13 | 84 | 4.28 | 24.4 | 31.6 | > 100 | > 100 | > 100 | 12 | > 100 | 21 | 50.3 | 20.2 | > 100 | 12.6 | > 100
Cn1c2ccccc2c(=S)c2ccccc21 | – | > 100 | – | > 100 | – | > 100 | – | > 100 | – | – | – | > 100 | – | > 100 | – | > 100
COC(=O)Nc1nc2ccc(Oc3ccc(NC(=O)Nc4cccc(C(=O)O)c4)cc3)cc2[nH]1 | 11.9 | > 25 | 6.21 | > 16.5 | 8.44 | > 25 | 10.5 | > 25 | 9.77 | > 25 | 9.24 | > 25 | 4.73 | 24.3 | 8.82 | > 25
COc1ccc2nc(-c3cc(-c4cc(OC)c(OC)c(OC)c4)n[nH]3)[nH]c2c1 | 2.06 | 8.45 | 1.61 | 3.24 | 3.03 | 10.6 | 2.92 | 12.8 | 1.24 | 4.81 | – | – | 2.15 | 6.66 | 1.81 | 6.65
C=C1C(=O)O[C@@H]2C[C@@]3(C)CCC[C@H](C)C3=C[C@H]12 | – | 12.5 | – | 3.39 | – | 29.1 | – | 12.7 | – | 17.6 | – | 14.7 | – | 17.2 | – | 16.2
COc1cc(O)c2c(O)c3c(c4c2c1[C@]1(C4)C(C)=CCCC1(C)C)[C@H](O)[C@@]1(O)CC(=O)C(C(N)=O)=C(O)[C@@]1(O)C3=O | – | 1.25 | – | 0.24 | – | – | – | 1.62 | – | 1.39 | – | 0.695 | – | 1.23 | – | 1.3
Cc1cc2c(cc1Cl)SC1=CC(=O)N(c3ccccc3)C1=NS2(=O)=O | 32 | > 100 | 26.4 | 67 | – | – | 27.5 | 71.6 | 65.3 | > 100 | 51.4 | > 100 | 39.4 | > 100 | 30.9 | > 100
CCCN(CCC)C(=O)C1=Cc2ccc(-c3ccc(C(=O)N4CCCC4)cc3)cc2N=C(N)C1 | 18.4 | 60 | 4.26 | 16.3 | 14.4 | 35.8 | 14.7 | 42.3 | 9.45 | 69.5 | 10.6 | 26.2 | 3.32 | 15.3 | 4.55 | 19.2
O=C1NN(c2ccc(C(=O)O)cc2)C(=O)/C1=C\c1ccc([N+](=O)[O-])o1 | 58.8 | > 100 | 20.9 | 38.8 | > 100 | > 100 | > 100 | > 100 | – | – | 83.1 | > 100 | 22.4 | 50.5 | 20.8 | 42.8
COc1ccc(N(CC(=O)NCCC[Te]c2ccccc2)C(=O)c2ccccc2)cc1 | 2.7 | 8.51 | 2.58 | 6.03 | 3.03 | 8.21 | 5.09 | 19.6 | 11.9 | 25.2 | 4.19 | 15.3 | 3.17 | 10.8 | 2.55 | 10.2
COc1cc2c3c(n(CCCCOC(=O)C(F)(F)F)c(=O)c2cc1OC)-c1cc2c(cc1C3=O)OCO2 | > 93.9 | > 100 | > 100 | > 100 | > 100 | > 100 | 0.982 | 7.65 | > 100 | > 100 | > 100 | > 100 | > 48.8 | > 100 | – | –
Oc1ccccc1-c1nn(CNc2cccc(Cl)c2)c(=S)o1 | > 100 | > 100 | 53.8 | > 100 | – | – | 67.3 | > 100 | – | – | > 100 | > 100 | 37.9 | > 100 | 25.3 | > 100
Nc1nc(N)c(N=O)c(Nc2ccc(O)cc2)n1 | – | > 100 | – | > 100 | – | > 100 | – | > 95.5 | – | > 100 | – | > 100 | – | – | – | > 100
Cc1nc(Cl)nc(Cl)c1C | – | > 100 | – | – | – | > 100 | – | > 100 | – | > 100 | – | > 100 | – | > 100 | – | –
CCN(CC)CCCC(C)Nc1cnc(C(=O)Nc2ccc(Cl)c3cccnc23)cn1 (stereo unspecified) | 2.19 | 5.53 | 1.58 | 3.23 | 1.5 | 3.08 | 1.4 | 2.87 | 2.42 | 6.99 | 1.95 | 4.34 | 1.68 | 4.39 | – | –
CC(=O)N1N=C2/C(=C/c3ccccc3)CC(C)CC2C1c1ccccc1 (stereo unspecified) | 14.8 | 30.4 | 16.5 | 45.6 | 8.86 | 21.2 | 17.7 | 34.8 | 10.8 | 25.2 | 18.7 | 46.3 | 10.1 | 22.6 | – | –
c1ccc(Cn2cc3c(c2-c2ccccc2)CCc2cnoc2-3)cc1 | 7.83 | > 100 | 2.9 | 11.1 | – | – | 6.7 | 69.1 | 10.7 | > 100 | 11.5 | > 100 | 3.44 | > 100 | 3.27 | > 100
CC1=C(C(=O)Nc2ccc(F)c(Cl)c2)C(c2ccccc2Cl)NC(=S)N1 (stereo unspecified) | 13.3 | 42.9 | 23.9 | > 50 | – | – | 30 | > 50 | – | – | 26.8 | > 50 | 21.7 | > 50 | 22.4 | > 50
CC(=O)[CH-]C(=O)c1ccccc1.CC(=O)[CH-]C(=O)c1ccccc1.CC[O-].CC[O-].[Zr+4] | > 100 | > 100 | > 100 | > 100 | > 100 | > 100 | > 100 | > 100 | > 100 | > 100 | > 100 | > 100 | – | – | > 100 | > 100
CC1CC2(C)ON=C(c3ccccc3)N2c2ccccc2S1 (stereo unspecified) | 18 | 34.2 | 22.6 | 56.2 | – | – | 34.4 | – | 88 | – | – | – | 31.4 | 79 | 21.4 | 49.6
